Reference: paper PMC9820430, “New Affordable Methods for Large-Scale Isolation of Major Olive Secoiridoids and Systematic Comparative Study of Their Antiproliferative/Cytotoxic Effect on Multiple Cancer Cell Lines of Different Cancer Origins” (International Journal of Molecular Sciences, 2022)

Assays:
MCF-7 = test: ATP-based luminescence cell viability assay (ViaLight), 72 h; set-up: species or system human; conditions: Homo sapiens, MCF7, 72 h, 72 h treatment, read-out: EC50 Values of Olive Oil Polyphenols
Method: (§1) The antiproliferative/cytotoxic effects of the selected OOPs on each cell line were assessed by measuring the cellular ATP levels after 72 h treatments using an ATP-based luminescence assay. This assay, initially developed as a tumor chemosensitivity assay, has shown considerable promise as a general in vitro toxicity assay due to its high sensitivity that allows the detection of a small number of cells. Consequently, it can be applied to both cancer cell lines and primary tissue cells. […] The EC50 values were calculated by nonlinear regression (curve fit) using a sigmoidal dose–response equation (Figure 2A and Figure S2).
(§2) The OOPs tested in this study were first dissolved in an appropriate DMSO volume such as to prepare a final stock solution of 50 mM, which was further used to prepare various compound concentrations in DMSO-based solutions. The final DMSO concentration in the cell culture was maintained constant in all treated groups of any given experiment and never exceeded the value of 0.2% (v/v). For the treatment experiments, cells were plated in 96-well culture plates, in 100 μL of complete medium at a seeding density of 5000–10,000 cells/well—depending on cells’ size and doubling time—and were allowed to adhere overnight (~16 h). The next day, 150 μL of complete medium was added to each well and the cells were treated with various concentrations of OOPs. Each concentration was tested in triplicate and was repeated 2–3 times. To prepare the final concentration solutions, 0.5 μL of a 500× stock of each tested compound in DMSO was added directly into each well in a final volume of 250 μL culture medium and was gently mixed by pipetting. Control wells were prepared under the same experimental conditions by adding only DMSO at a final concentration of 0.2% (v/v). Compounds were not renewed during the entire period of cell exposure. All cells were cultured at 37 °C in a 5% (v/v) CO2 for 24, 48 or 72 h.
(§3) Briefly, after the treatment with OOPs, the adapted medium was removed from the dish wells and the cells were washed twice with medium without FBS. Then, the C-lysis (LT27-076) was diluted in PBS (1:2) and a volume of 50 μL was added to each well. Cells were incubated with C-lysis for at least 10 min. Finally, an equal volume of lysed cells from each well and ATP monitoring reagent (AMR; LT27-212) was transferred to the wells of a white-walled illuminometer plate (Greiner bio-one; 655074). Cell viability was quantified by measuring luminescence using a multi-mode microplate reader Safire^2 Tecan (software Magellan V6.00 STD.2PC WIN.20000/XP).

MDA-MB 231 = test: as above; set-up: species or system human; conditions: Homo sapiens, MDA-MB-231, 72 h, MDA-MB 231; 72 h treatment; read-out: EC50 Values of Olive Oil Polyphenols
Method: as §1, §2, §3

SK-BR-3 = test: as above; set-up: species or system human; conditions: Homo sapiens, SK-BR-3, 72 h, SK-BR-3; 72 h treatment; read-out: EC50 Values of Olive Oil Polyphenols
Method: as §1, §2, §3

[1] = tested on: three breast cancer cell lines (MDA-MB-231, SK-BR-3 and MCF-7); test: ATP-based luminescence cell viability assay, breast panel; set-up: species or system human
Method: as §1
The calculated EC50 values ranged between 9.1–100 μΜ (Table 1). The bioactivity of the oleocanthalic acid (7), studied here for the first time for its antiproliferative/cytotoxic activity, was initially evaluated systematically in the three breast cancer cell lines using a concentration range of 10–100 μM. In all cases, the viability measured was ≥80%, predicting EC50 values > 100 μΜ. […] For this reason, oleocanthalic acid (7) was excluded from the rest of this study.
as §2
Briefly, after the treatment with OOPs, the adapted medium was removed from the dish wells and the cells were washed twice with medium without FBS. Then, the C-lysis (LT27-076) was diluted in PBS (1:2) and a volume of 50 μL was added to each well. […] Cell viability was quantified by measuring luminescence using a multi-mode microplate reader Safire^2 Tecan (software Magellan V6.00 STD.2PC WIN.20000/XP).

[2] = tested on: sixteen human cancer cell lines originating from eight different tissues; test: ATP-based luminescence cell viability assay, whole panel
Method: as §1, §2, §3

## C/C=C(/C=O)[C@@H](CC(=O)O)CC(=O)OCCc1ccc(O)cc1 [compound 7, oleocanthalic acid]
MCF-7
  EC50: > 100 µM
MDA-MB 231
  EC50: > 100 µM
SK-BR-3
  EC50: > 100 µM
[1]; Homo sapiens, MDA-MB-231, SK-BR-3 and MCF-7, 72 h
  EC50: > 100 µM
[1]; three breast cancer cell lines, concentration range of 10–100 μM
  viability measured: ≥ 80%
[2]; Figure 3, sixteen cancer cell lines
  Bioactivity range on cancer cell lines (grade in words): Low activity
[2]; Homo sapiens, 72 h treatment, range across cancer cell lines, read-out: EC50, range over the cancer cell lines
  EC50: > 100 µM
